# Results reported in article PMC5136619, “Crystal structure of bacterial haem importer complex in the inward-facing conformation” (Nature Communications, 2016).
# Target: T1, BhuUV-T (Burkholderia cenocepacia, UniProt B4EKB5)
# T1 construct: gene hmuV; His8-BhuU full length with BhuV, plus haem-free BhuT 40-311 (GST cut off by PreScission) in ATPase assay; GFP-tagged BhuT in pull-down; heteropentamer; with Heme ABC transporter permease BhuU
# Test: His-tag pull-down, release of GFP-BhuT from immobilized BhuUV
# Assay type: binding
# Details: 1 mM AMP–PNP, 1 mM MgCl2, 0.15% DM, pH 7.5, on ice; nucleotide site of BhuV
# T1 sequence (B4EKB3 entry or part of it): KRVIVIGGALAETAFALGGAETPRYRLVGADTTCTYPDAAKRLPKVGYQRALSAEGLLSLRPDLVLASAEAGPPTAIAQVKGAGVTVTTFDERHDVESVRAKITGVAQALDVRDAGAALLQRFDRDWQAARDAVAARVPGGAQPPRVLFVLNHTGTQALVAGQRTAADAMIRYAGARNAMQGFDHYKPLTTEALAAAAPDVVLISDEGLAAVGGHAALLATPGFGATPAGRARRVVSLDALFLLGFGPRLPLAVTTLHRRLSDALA
# T1 sequence (B4EKB4 entry or part of it, further chain): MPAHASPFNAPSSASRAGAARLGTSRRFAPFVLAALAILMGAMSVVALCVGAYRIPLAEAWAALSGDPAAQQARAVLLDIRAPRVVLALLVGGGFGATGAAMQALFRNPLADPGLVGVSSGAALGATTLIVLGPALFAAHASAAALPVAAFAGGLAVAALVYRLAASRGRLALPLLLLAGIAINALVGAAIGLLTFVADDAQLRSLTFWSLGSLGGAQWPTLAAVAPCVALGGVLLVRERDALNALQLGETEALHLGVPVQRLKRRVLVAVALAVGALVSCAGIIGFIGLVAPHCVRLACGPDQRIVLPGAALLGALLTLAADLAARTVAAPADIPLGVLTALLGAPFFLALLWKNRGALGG
# T1 sequence (B4EKB5 entry or part of it): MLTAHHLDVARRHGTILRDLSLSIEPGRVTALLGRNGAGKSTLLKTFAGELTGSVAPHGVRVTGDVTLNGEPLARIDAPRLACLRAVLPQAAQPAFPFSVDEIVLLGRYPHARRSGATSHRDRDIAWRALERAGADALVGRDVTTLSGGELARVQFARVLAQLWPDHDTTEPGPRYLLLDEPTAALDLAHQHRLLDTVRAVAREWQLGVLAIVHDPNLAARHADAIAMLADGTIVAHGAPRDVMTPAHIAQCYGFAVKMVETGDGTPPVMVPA
smiles,measurement,value
Nc1ncnc2c1ncn2[C@@H]1O[C@H](COP(=O)(O)OP(=O)(O)NP(=O)(O)O)[C@@H](O)[C@H]1O [AMP–PNP],"His-tag pull-down, release of GFP-BhuT from immobilized BhuUV",both ATP and AMP–PNP caused the dissociation of GFP-BhuT from BhuUV
